# Marks after values point to notes of the source that are not given here.
# Key:
# [1] = system: SCNT embryos; assay: In vitro development of SCNT embryos treated with Scriptaid or TPEN; format: cell-based, pig; conditions: SCNT + Scriptaid
# Method: Activated oocytes were washed three times in PZM3 then incubated at 38.5° C., 5% CO2 until the embryos were examined on either day 2, 6 or 7. At the end of the culture, where applicable, the frequency of cleaved embryos and blastocysts, and total cell number in the blastocysts were recorded. Hoechst 33342 (1.2 mg/mL) was used to stain nuclei and the embryos were then evaluated by epi-fluorescence microscopy.
# Next, the optimal concentration and duration of TPEN ([…], 30 min) was used to artificially activate reconstructed SCNT embryos. […] Thus lower concentrations of TPEN (5-10 μM) can enhance embryo development when introduced after conventional oocyte activation.
# [2] = system: MII oocytes; assay: Intracellular calcium measurement (fura-2); format: cell-based, pig; conditions: oocytes incubated with thimerosal, positive control
# Method: The zonae pellucidae were removed after maturation and zona-free oocytes were loaded with the Ca^2+ indicator dye, fura-2. For this purpose, they were incubated in the presence of […] of the acetoxymethyl ester form of the dye and 0.02% pluronic F-127 for 40-50 min (both from Invitrogen). The dye loaded oocytes were transferred into a chamber with a cover-glass bottom and the chamber was then placed on the heated stage of an inverted microscope. Changes in the intracellular free Ca^2+ concentration were recorded using InCytIm2, a dual-wavelength fluorescence imaging system (Intracellular Imaging, Inc.; Cincinnati, Ohio). During measurements the emitted fluorescence was detected at 510 nm after exciting the dye alternately at 340 and 380 nm. The ratio of the two emitted fluorescence intensities was calculated and the data are presented as fluorescence ratio values. Ratios of 1.0 and 5.0 correspond to about 100 and 1,200 nM Ca^2+, respectively. In each treatment group the measurements were repeated at least 5 times using different oocytes.
Compound,% blastocysts [1] [%^b],intracellular Ca2+ increase [2]
O=C(CCCCCN1C(=O)c2cccc3cccc(c23)C1=O)NO [Scriptaid],22.7,–
C[CH2][Hg][S]c1ccccc1C(=O)[O-].[Na+] [thimerosal],–,could induce Ca^2+ increase
